Active and inactive are the calls of the source.
How the values were obtained:
[1] = biological target: Tyrosine-protein phosphatase non-receptor type 12 (Homo sapiens, UniProt Q05209); assay: SAR Selectivity Analysis of small molecule inhibitors of PEST using pCAP in a fluorescence assay. [Related pubchem assays (depositor defined):AID1779, AID1784, AID2135]; assay type: functional
[2] = biological target: T1, Tyrosine-protein phosphatase non-receptor type 22 (Homo sapiens, UniProt Q9Y2R2); assay: SAR LYP1 Fluorescent Assay using OMFP substrate for In Vitro dose response studies - Set 3. [Related pubchem assays (depositor defined):AID1779, AID1784, AID2140, AID2686]; assay type: functional
T1 sequence (Q9Y2R2 whole entry): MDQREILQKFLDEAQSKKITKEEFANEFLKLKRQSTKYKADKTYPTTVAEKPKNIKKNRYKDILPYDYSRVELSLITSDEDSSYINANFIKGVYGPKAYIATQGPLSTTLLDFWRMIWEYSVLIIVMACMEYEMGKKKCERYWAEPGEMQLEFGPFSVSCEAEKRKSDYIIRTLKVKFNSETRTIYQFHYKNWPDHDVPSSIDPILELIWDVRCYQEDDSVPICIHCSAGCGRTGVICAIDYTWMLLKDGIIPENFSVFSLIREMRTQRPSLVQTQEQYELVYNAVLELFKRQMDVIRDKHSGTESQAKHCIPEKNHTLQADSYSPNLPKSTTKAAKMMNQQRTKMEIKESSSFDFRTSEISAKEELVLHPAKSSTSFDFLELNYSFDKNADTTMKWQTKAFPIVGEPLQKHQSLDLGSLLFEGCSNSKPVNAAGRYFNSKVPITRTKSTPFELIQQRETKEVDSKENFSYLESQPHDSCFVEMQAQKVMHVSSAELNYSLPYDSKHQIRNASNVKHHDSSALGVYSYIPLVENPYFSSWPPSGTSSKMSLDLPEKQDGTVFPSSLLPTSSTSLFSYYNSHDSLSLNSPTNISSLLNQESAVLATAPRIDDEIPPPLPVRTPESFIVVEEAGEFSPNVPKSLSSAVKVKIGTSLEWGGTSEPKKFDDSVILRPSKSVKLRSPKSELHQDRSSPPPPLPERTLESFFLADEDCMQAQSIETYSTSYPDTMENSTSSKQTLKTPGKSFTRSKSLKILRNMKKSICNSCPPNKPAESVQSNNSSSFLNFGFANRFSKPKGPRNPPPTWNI

[3] = biological target: T2, Tyrosine-protein phosphatase non-receptor type 7 (Homo sapiens, UniProt P35236); assay: inhibition of hematopoietic tyrosine phosphatase HePTP – biochemical, set 2, SAR follow-up (AID 449736); assay type: functional
T2 sequence (P35236 whole entry): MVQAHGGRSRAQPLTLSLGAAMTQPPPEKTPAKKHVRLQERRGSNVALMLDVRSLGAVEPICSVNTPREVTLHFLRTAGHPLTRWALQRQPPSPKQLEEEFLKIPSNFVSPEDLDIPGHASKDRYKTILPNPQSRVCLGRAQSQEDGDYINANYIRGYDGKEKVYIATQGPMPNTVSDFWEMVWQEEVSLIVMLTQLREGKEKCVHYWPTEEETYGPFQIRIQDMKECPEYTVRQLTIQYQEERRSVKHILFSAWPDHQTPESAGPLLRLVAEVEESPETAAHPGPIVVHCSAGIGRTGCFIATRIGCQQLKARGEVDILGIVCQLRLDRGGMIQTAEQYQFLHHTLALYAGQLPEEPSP

[4] = biological target: T1, Tyrosine-protein phosphatase non-receptor type 22; assay: SAR LYP1 Fluorescent Assay using pCAP substrate for In Vitro dose response studies - Set 2. [Related pubchem assays (depositor defined):AID1779, AID1784, AID2135, AID449727]; assay type: functional
[5] = biological target: T1, Tyrosine-protein phosphatase non-receptor type 22; assay: SAR LYP1 Fluorescent Assay using OMFP substrate for In Vitro dose response studies - Set 2. [Related pubchem assays (depositor defined):AID1779, AID1784, AID2140, AID449726, AID488869]; assay type: functional
[6] = biological target: T1, Tyrosine-protein phosphatase non-receptor type 22; assay: inhibition of lymphoid tyrosine phosphatase LYP – biochemical, pCAP fluorogenic substrate, fluorescence, set 3, SAR follow-up (AID 449727); assay type: functional
[7] = tested on: HEK293; assay: cells; conditions: Homo sapiens
[8] = tested on: HEK293; assay: cells; conditions: Homo sapiens; remark: listed apart in the source
[9] = blockers of HIV-1 envelope-mediated cell-cell fusion – cherry-pick, dose response (AID 652057); assay type: functional, cell-based
[10] = off-target signal loss in HeLa-CEM21 co-culture – HeLa F-luc CTL cells, cherry-picked, counter-screen for HIV-1 Env fusion inhibitor project, dose response (AID 652040); assay type: functional, cell-based;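 also: potency for signal decrease marking cytotoxic or nonspecific inhibition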
[11] = blockers of HIV-1 ZM109 envelope-driven cell-cell fusion – HeLa effector, CEM target cells, luciferase, cherry-pick, dose response (AID 652058); assay type: functional, cell-based;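 also: luciferase signal from HIV-1 Env mediated cell-cell fusion of effector and target cells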
[12] = HIV-1 AD8 envelope cell-cell fusion blockers – cherry-pick, dose response (AID 652062); assay type: functional, cell-based;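 also: luciferase signal from cell-cell fusion driven by HIV-1 clade B AD8 Env; potency is for inhibitors of fusion seen as a drop in luminescence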
[13] = biological target: Phospholipase A2 (Homo sapiens, UniProt P04054); assay type: functional;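 also: confirmatory dose-response counterscreen on phospholipase A2, testing hits that came from an ultra-high-throughput screen for ATG4B inhibitors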
Sequence of Phospholipase A2 (P04054 whole entry, the tested form may be a part): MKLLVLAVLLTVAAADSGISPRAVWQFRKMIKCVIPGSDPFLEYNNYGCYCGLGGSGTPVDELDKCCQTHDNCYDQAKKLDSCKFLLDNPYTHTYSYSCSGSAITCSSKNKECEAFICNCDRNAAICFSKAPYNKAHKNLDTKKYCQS

[14] = biological target: T3, Carboxy-terminal domain RNA polymerase II polypeptide A small phosphatase 1 (Homo sapiens, UniProt Q9GZU7); assay: CTDSP1 inhibitors, concentration-response, biochemical, absorbance readout, ultra-high-throughput screen actives (AID 540297); assay type: functional
T3 sequence (Q9GZU7 whole entry): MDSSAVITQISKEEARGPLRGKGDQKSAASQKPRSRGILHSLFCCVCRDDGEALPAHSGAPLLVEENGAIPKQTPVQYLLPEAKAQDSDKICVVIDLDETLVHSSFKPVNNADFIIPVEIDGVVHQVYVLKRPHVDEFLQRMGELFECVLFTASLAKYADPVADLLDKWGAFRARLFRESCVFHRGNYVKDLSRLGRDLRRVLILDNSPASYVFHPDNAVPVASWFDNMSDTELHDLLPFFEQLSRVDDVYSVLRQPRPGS

[15] = biological target: T4, Dual specificity protein phosphatase 6 (Rattus norvegicus, UniProt Q64346); assay: inhibition of rat DUSP6 enzyme activity – biochemical, in vitro, primary screen (AID 425)
T4 sequence (Q64346 whole entry): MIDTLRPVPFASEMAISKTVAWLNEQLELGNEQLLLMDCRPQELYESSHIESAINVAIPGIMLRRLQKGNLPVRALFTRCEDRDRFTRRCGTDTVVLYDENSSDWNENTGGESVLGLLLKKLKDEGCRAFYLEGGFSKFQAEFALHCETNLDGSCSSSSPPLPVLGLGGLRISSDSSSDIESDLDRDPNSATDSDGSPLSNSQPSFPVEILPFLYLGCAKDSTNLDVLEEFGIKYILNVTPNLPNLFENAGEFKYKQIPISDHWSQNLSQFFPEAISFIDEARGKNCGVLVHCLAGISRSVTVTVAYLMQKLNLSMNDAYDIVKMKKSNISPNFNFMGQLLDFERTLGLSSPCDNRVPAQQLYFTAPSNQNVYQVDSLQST

[16] = biological target: T5, Dual specificity protein phosphatase 3 (Homo sapiens, UniProt P51452); assay: VHR1 phosphatase inhibitors, biochemical (AID 1878)
T5 sequence (P51452 whole entry): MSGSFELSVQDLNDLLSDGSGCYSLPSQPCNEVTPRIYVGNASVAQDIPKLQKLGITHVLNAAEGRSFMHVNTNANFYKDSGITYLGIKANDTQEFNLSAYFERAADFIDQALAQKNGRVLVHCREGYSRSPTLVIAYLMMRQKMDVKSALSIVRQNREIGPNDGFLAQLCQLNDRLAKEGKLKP

[17] = biological target: T6, Cysteine protease ATG4B (Homo sapiens, UniProt Q9Y4P1); assay type: functional;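 also: Fluorescence-based dose-response confirmation assay measuring inhibition of ATG4B activity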
T6 sequence (Q9Y4P1 whole entry): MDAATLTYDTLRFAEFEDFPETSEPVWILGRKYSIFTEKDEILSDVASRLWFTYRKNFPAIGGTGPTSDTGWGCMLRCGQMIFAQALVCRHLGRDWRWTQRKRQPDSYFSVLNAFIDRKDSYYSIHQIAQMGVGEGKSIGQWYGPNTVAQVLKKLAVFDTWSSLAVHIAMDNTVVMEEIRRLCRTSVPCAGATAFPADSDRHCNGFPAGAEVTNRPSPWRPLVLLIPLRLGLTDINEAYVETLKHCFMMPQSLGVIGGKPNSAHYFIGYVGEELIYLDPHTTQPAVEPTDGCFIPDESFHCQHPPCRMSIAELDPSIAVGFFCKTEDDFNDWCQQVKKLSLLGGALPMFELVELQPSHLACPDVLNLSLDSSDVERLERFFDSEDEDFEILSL

[18] = biological target: T5, Dual specificity protein phosphatase 3; assay: VHR1 phosphatase inhibitors, primary screen, biochemical, absorbance, uHTS (AID 1654)
[19] = biological target: T1, Tyrosine-protein phosphatase non-receptor type 22; assay type: functional
[20] = biological target: Large T antigen (Simian virus 40, UniProt P03070); assay type: functional, Betapolyomavirus macacae;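 also: Confirmatory-stage PubChem screen for compounds that inhibit SV40 T antigen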
Sequence of Large T antigen (P03070 whole entry): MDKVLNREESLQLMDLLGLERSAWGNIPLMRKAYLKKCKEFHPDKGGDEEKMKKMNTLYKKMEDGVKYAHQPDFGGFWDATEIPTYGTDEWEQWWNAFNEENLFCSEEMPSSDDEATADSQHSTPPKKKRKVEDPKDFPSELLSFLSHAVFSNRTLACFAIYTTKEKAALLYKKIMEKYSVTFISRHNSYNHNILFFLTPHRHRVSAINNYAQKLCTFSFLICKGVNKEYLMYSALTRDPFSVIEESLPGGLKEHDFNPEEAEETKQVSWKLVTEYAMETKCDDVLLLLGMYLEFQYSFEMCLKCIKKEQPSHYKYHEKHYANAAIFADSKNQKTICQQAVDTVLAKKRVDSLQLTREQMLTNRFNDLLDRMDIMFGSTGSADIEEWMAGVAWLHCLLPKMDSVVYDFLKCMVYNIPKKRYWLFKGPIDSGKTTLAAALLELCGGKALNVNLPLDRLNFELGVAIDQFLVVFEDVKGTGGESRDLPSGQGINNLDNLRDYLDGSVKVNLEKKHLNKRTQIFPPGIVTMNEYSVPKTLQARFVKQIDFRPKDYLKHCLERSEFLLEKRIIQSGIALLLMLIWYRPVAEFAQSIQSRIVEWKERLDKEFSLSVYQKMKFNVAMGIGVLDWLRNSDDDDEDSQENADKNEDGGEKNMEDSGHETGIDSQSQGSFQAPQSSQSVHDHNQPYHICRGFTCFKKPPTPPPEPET

[21] = biological target: T2, Tyrosine-protein phosphatase non-receptor type 7; assay type: functional
[22] = biological target: T1, Tyrosine-protein phosphatase non-receptor type 22; assay type: functional; remark: listed apart in the source

Sequence of Tyrosine-protein phosphatase non-receptor type 12 (Q05209 whole entry): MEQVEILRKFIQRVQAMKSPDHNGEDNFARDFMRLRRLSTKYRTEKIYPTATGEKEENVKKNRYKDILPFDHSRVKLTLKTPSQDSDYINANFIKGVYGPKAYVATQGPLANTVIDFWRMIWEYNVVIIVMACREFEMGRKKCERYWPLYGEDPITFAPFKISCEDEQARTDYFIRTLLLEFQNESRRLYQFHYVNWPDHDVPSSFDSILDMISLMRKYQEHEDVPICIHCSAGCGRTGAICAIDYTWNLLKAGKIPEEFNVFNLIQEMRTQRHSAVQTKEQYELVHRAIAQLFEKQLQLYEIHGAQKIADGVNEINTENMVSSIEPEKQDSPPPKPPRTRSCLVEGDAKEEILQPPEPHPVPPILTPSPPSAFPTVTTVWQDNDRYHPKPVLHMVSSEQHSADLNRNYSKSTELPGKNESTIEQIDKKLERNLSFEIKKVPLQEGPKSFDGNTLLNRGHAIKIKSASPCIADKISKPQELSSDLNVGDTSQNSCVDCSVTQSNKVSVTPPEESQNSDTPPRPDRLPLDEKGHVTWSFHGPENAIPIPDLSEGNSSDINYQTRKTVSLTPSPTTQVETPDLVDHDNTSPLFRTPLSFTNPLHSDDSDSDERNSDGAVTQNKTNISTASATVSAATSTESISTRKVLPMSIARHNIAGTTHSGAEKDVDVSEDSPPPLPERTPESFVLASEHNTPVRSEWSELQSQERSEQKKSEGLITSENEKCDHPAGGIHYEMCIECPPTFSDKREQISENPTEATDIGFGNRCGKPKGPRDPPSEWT

O=C(O)COc1ccc2c(c1)O/C(=C\c1cccs1)C2=O
IC50 [1]: > 100 µM (inactive)
IC50 [2]: > 100 µM (inactive)
IC50 [3]: > 100 µM (inactive)
IC50 [4]: 81.2 µM (active)
IC50 [5]: > 100 µM (inactive)
IC50 [6]: > 100 µM (inactive)

CCS(=O)(=O)N1Cc2ccccc2CC1C(=O)NCC12CC3CC(CC(C3)C1)C2 (stereo not given)
EC50 [7]: > 59.7 µM (inactive)
EC50 [8]: > 59.7 µM (inactive)
AC50 [9]: 4.37 µM (active)
AC50 [10]: 7.35 µM (active)
AC50 [11]: 2.86 µM (active)
AC50 [12]: 19.8 µM (active)

O=C(N/N=C/c1ccccc1Cl)c1nc(O)c2cc([N+](=O)[O-])ccc2n1
IC50 [13]: 30.2 µM (inactive)
IC50 [14]: 6.91 µM (active)
IC50 [15]: > 158 µM (not active)
IC50 [16]: > 158 µM (inactive)
IC50 [17]: 10.1 µM (active)
IC50 [18]: 12.8 µM (active)

C=CCc1cccc2cc(C(=O)Nc3ccc(S(=O)(=O)Nc4nnc(CC)s4)cc3)c(=O)oc12
IC50 [19]: 8.58 µM (active)
IC50 [20]: 83.2 µM (active)
IC50 [21]: 6.18 µM (active)
IC50 [22]: 9.43 µM (active)

O=c1c(-c2ccccc2)c(O)c2c(n1-c1ccccc1)CCCC2
IC50 [19]: > 79.4 µM (inactive)
IC50 [21]: > 79.4 µM (inactive)
IC50 [22]: > 79.4 µM (inactive)
